From ChEMBL document CHEMBL1201862, “PubChem BioAssay data set” (2004)
Activity calls are given as the source filed them.

Key:
HEK293 [1] = assay: NOD1 signaling inhibitors, primary screen, cell-based, luminescence, uHTS (AID 1578); type: functional; details: Homo sapiens
HEK293 [2] = assay: cells; type: functional, cell-based; details: Homo sapiens
HEK293 [3] = assay: cells; type: functional, cell-based; details: Homo sapiens; remark: listed apart in the source
[4] = Luminescence Cell-Based Dose Confirmation HTS to Identify Inhibitors of Platelet Dense Granule Release. [Related pubchem assays: 1663 (Primary HTS), 1678 (Summary of Project)]; type: functional
HEK293 [5] = assay: NOD2 signaling inhibitors in MDP-stimulated cells, cell-based, uHTS, luminescence (AID 2001); type: functional; details: Homo sapiens
HEK293 [6] = assay: cells; type: functional, cell-based; details: Homo sapiens; remark: listed apart in the source
[7] = non-specific cell cytotoxicity, dose response, cytotoxicity control for PAX8 inhibitor project, plate reader, dry powder samples (AID 743021); type: functional, cell-based
[8] = biological target: Peroxisome proliferator-activated receptor gamma/Nuclear receptor coactivator 1 (Homo sapiens, UniProt P37231); assay: (§1) TR-FRET dose response biochemical High Throughput Screening assay for agonists of the steroid receptor coactivator 1 (SRC-1) recruitment by the peroxisome proliferator-activated receptor gamma (PPAR gamma): non-selective agonists. [Related pubchem assays (depositor defined):AID1300, AID1808, AID504735, AID631]; type: protein assay
[9] = biological target: Peroxisome proliferator-activated receptor gamma/Nuclear receptor coactivator 3 (Homo sapiens, UniProt P37231); assay: as §1, with “3 (SRC-3)” for “1 (SRC-1)”, “assays: 1301 (Confirmation screen.), 1048 (Primary screen.)]” for “assays (depositor defined):AID1300, AID1808, AID504735, AID631]”; type: functional
[10] = biological target: Peroxisome proliferator-activated receptor gamma/Nuclear receptor coactivator 2 (Homo sapiens, UniProt P37231); assay: TR-FRET dose response biochemical High Throughput Screening assay for agonists of the steroid receptor coactivator 2 (SRC-2) recruitment by the peroxisome proliferator-activated receptor gamma (PPAR gamma): non-selective agonists. [Related pubchem assays: 1297, 1032 ]; type: functional
Troponin, cardiac muscle = Troponin, cardiac muscle (Homo sapiens, UniProt P19429+P45379+P63316); assay: Fluorescence-based biochemical high throughput dose response assay for activators of the calcium sensitivity of cardiac Regulated Thin Filaments (RTF). [Related pubchem assays (depositor defined):AID493008, AID493018, AID504382, AID504383]; type: protein-complex assay
Estrogen receptor = biological target: T1, Estrogen receptor (Homo sapiens, UniProt P03372);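 further: potency for inhibiting coactivator peptide recruitment to the receptor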
T1 sequence (P03372 whole entry): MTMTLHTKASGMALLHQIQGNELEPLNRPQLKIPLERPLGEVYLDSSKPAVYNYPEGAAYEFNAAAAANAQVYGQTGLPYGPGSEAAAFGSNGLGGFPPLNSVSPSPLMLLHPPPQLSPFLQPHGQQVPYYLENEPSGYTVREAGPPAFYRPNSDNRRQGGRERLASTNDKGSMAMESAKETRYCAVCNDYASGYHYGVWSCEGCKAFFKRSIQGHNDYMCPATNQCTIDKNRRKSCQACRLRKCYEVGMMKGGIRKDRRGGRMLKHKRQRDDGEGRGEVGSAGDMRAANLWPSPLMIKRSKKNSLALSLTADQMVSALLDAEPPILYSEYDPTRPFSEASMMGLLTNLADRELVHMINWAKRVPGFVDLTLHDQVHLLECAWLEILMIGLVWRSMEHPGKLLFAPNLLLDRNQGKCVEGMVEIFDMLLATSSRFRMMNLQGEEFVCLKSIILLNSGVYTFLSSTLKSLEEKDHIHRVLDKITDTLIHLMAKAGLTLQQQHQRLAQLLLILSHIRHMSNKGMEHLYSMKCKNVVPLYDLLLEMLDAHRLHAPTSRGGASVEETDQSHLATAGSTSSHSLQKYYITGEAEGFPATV

Cytochrome P450 3A4 = Cytochrome P450 3A4 (Homo sapiens, UniProt P08684);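 further: CYP3A4 tested as one member of a cytochrome P450 panel screen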
Cytochrome P450 2C19 = Cytochrome P450 2C19 (Homo sapiens, UniProt P33261); assay: Cytochrome panel assay with activity outcomes. Panel member name: p450-cyp2c19 Compounds with AC50 equal or less than 10 uM are considered active; type: functional
Cytochrome P450 2D6 = Cytochrome P450 2D6 (Homo sapiens, UniProt P10635);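 further: CYP2D6 member of a cytochrome P450 panel assay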
Cytochrome P450 1A2 = biological target: T2, Cytochrome P450 1A2 (Homo sapiens, UniProt P05177);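 further: PubChem cytochrome P450 panel assay, CYP1A2 panel member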
T2 sequence (P05177 whole entry): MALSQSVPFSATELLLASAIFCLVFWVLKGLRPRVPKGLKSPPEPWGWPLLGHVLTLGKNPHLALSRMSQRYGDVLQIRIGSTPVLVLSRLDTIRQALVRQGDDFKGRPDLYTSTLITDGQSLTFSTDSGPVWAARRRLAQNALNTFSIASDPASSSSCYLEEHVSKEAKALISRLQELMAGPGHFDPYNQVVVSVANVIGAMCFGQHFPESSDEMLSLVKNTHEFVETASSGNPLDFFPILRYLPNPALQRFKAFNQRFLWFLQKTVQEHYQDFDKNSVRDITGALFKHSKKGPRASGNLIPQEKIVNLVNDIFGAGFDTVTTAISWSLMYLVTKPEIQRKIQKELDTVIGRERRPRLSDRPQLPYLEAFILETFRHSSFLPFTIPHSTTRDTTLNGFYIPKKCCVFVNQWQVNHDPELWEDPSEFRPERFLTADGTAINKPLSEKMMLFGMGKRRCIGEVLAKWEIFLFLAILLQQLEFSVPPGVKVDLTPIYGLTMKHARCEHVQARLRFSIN

Cytochrome P450 2C9 [11] = biological target: T3, Cytochrome P450 2C9 (Homo sapiens, UniProt P11712)
[12] = biological target: Nucleotide-binding oligomerization domain-containing protein 2 (Homo sapiens, UniProt Q9HC29); assay: NOD2 signaling inhibitors, cell-based, luminescence, uHTS, HEK293 (AID 1566); type: functional
[13] = biological target: Glucose-6-phosphate 1-dehydrogenase (Homo sapiens, UniProt P11413); assay: human G6PD enzyme inhibitors, dose response, selectivity assay for P. falciparum G6PD inhibitor project, biochemical, fluorescence (AID 504792); type: functional
Cytochrome P450 2C9 [14] = biological target: T3, Cytochrome P450 2C9; remark: listed apart in the source
HEK293 [15] = assay: cells; details: Homo sapiens
HEK293 [16] = assay: cells; details: Homo sapiens; remark: listed apart in the source
[17] = insulin promoter down-regulators in MIN6 cells, imaging, high-content screening, mouse beta cells (AID 1628); type: functional
[18] = cytotoxicity in MIN6 insulinoma cells, dose response, cytotoxicity control, cell-based, mouse insulinoma (AID 2122); type: functional;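 further: confirmatory high-throughput counterscreen run to flag cytotoxic compounds; mouse MIN-6 beta cells carrying an insulin promoter eGFP reporter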

In the case of `COc1ccc(N(Cc2cc3cc(OC)ccc3nc2O)S(=O)(=O)c2ccc(NC(C)=O)cc2)cc1`, the EC50 (HEK293 [1]) is reported as > 20 µM (inactive), the IC50 (HEK293 [2]) is reported as 7.22 µM (active) and the IC50 (HEK293 [3]) is reported as > 20 µM (inactive). The EC50 [4] was > 112 µM (not active), the IC50 (HEK293 [5]) was > 20 µM (inactive) and the IC50 (HEK293 [6]) was > 20 µM (inactive). The AC50 [7] was 49.1 µM (active).
In the case of `COC(=O)c1sc(N2C(=O)C(O)=C(C(=O)c3ccc(C)o3)C2c2ccc(F)cc2)nc1C` (centres undefined), the EC50 [8] is reported as 41.9 µM (inactive), the EC50 [9] is reported as > 79.4 µM (not active) and the EC50 [10] is reported as 32.3 µM (not active). The EC50 (Troponin, cardiac muscle) was > 71.4 µM (inactive).
With `S=c1[nH]nc(-c2ccc(Cl)cc2)n1-c1ccc2c(c1)OCCO2` the EC50 (Troponin, cardiac muscle) was > 71.5 µM (inactive).
In the case of `O=C1CC(c2ccc(F)cc2)Cc2nc(NCC3CCCO3)ncc21` (centres undefined), the IC50 (Estrogen receptor) is reported as > 50 µM (not active) and the AC50 (Cytochrome P450 3A4) is reported as “inconclusive”.
In the case of `CCCCCCCCCC[Si](C)(C)CCC(=O)N[C@@H](Cc1ccc(C)cc1)c1ccccc1`, the AC50 (Cytochrome P450 2C19) is reported as “inconclusive”, the AC50 (Cytochrome P450 2D6) is reported as 39.8 µM (inconclusive) and the AC50 (Cytochrome P450 1A2) is reported as 31.6 µM (inconclusive). For the same compound, the AC50 (Cytochrome P450 2C9 [11]) was “inconclusive”.
For `COc1ccc(CCNC(=O)c2ccc3c(c2)N(Cc2ccccc2)CCS3)cc1OC`, the EC50 (HEK293 [1]) was 6.99 µM (active), the IC50 (HEK293 [2]) was 8.65 µM (active) and the IC50 (HEK293 [3]) was > 20 µM (inactive). The EC50 [12] was > 20 µM (inactive), the IC50 (HEK293 [5]) was 7.53 µM (active) and the IC50 (HEK293 [6]) was > 20 µM (inactive).
For `CCNc1nc(NC(C)C)nc(NS(=O)(=O)c2ccc(Cl)cc2)n1`, the IC50 [13] was > 80 µM (inactive).
With `CC1(C)CC(NC(=O)c2ccc3c(c2)OCO3)CC(C)(C)N1` the AC50 (Cytochrome P450 2C9 [14]) was 8.91 µM (inconclusive) and the AC50 (Cytochrome P450 3A4) was “inconclusive”.
With `C/C(NN1CCCCC1c1cccnc1)=C1/C(=O)NC(=S)N(C2CCCCC2)C1=O` (centres undefined) the EC50 (Troponin, cardiac muscle) was 14.9 µM (inactive), the EC50 (HEK293 [15]) was > 59.6 µM (inactive) and the EC50 (HEK293 [16]) was > 59.6 µM (inactive).
For `Cc1ccccc1-c1cc(N(C)C)ncn1`, the AC50 (Cytochrome P450 2D6) was 39.8 µM (inconclusive) and the AC50 (Cytochrome P450 3A4) was “inconclusive”.
For `Cc1nc2ccccn2c1C(=O)N=Nc1c(O)n(CCC(C)C)c2ccccc12`, the IC50 [17] was 1.67 µM (active) and the IC50 [18] was 2.72 µM (active).
